The values that follow come from ChEMBL document CHEMBL1121371, “Antihypertensive 5,6-diarylpyridazin-3-ones” (1980).

The experiment deals with Rattus norvegicus. As to the kind of experiment: Antihypertensive activity in spontaneously hypertensive rats, measured as average blood pressure at 100 mg/kg, p.o. before predose; No significant lowering of blood pressure. The class given is functional, organism-based. The arrangement: dose 100 mg/kg.

In the case of `CC(=O)c1c(-c2ccc(Cl)cc2)c(-c2ccc(Cl)cc2)nn(CCCCCCN2C(=O)c3ccccc3C2=O)c1=O`, the BP result is “Not significant”.

Consider `CC(=O)c1c(-c2ccc(O)cc2)c(-c2ccc(O)cc2)nn(CC[n+]2ccccc2)c1=O`, for which the BP result is “Not significant”.

As to `N#Cc1c(O)nnc(-c2ccc(Br)cc2)c1-c1ccc(Br)cc1`, the BP result is “Not significant”.

Take `Oc1nnc(-c2ccccc2)c(-c2ccccc2)c1-c1ccc(Cl)cc1`: the BP result was “Not significant”.

Take `CC(=O)c1c(-c2ccc(Cl)cc2)c(-c2ccc(Cl)cc2)nn(CCCl)c1=O`: the BP result is “Not significant”.

As to `COc1ccc(-c2nnc(O)c(C(C)=O)c2-c2ccc(OC)cc2)cc1`, the BP result was “Not significant”.

As for `O=c1c(-c2ccccc2)c(-c2ccc(Cl)cc2)c(-c2ccc(Cl)cc2)nn1CCO`, the BP entry was “Not significant”.

For the compound `O=c1c(-c2ccc(Br)cc2)c(-c2ccccc2)c(-c2ccccc2)nn1CCO`, the BP entry is “Not significant”.

With `CCCC(=O)c1c(-c2ccc(Cl)cc2)c(-c2ccc(Cl)cc2)nn(CCO)c1=O`, the BP result was “Not significant”.

Consider `COc1ccc(OC)c(-c2c(-c3ccccc3)c(-c3ccccc3)nn(CCO)c2=O)c1`, for which the BP entry is “Not significant”.

On to `COc1ccc(-c2c(-c3ccccc3)c(-c3ccccc3)nn(CCO)c2=O)cc1OC`, for which the BP result is “Not significant”.

On to `N#Cc1c(O)nnc(-c2ccc(Cl)c(Cl)c2)c1-c1ccc(Cl)c(Cl)c1`, for which the BP entry is “Not significant”.

Regarding `N#Cc1c(-c2ccccc2Cl)c(-c2ccccc2Cl)nn(CCO)c1=O`, the BP entry is “Not significant”.

Take `Oc1nnc(-c2ccccc2)c(-c2ccccc2)c1-c1ccc(Br)cc1`: the BP result was “Not significant”.

`O=C(O)c1c(-c2ccc(Cl)cc2)c(-c2ccc(Cl)cc2)nn(CCO)c1=O`: the BP entry is “Not significant”.

As for `COc1ccccc1-c1c(-c2ccccc2)c(-c2ccccc2)nn(CCO)c1=O`, the BP result was “Not significant”.

On to `Cc1ccc(-c2c(O)nnc(-c3ccccc3)c2-c2ccccc2)cc1`, for which the BP result is “Not significant”.

Consider `CCOC(=O)NCCn1nc(-c2ccc(Cl)cc2)c(-c2ccc(Cl)cc2)c(C(C)=O)c1=O`, for which the BP entry is “Not significant”.

Take `CCCC(=O)c1c(-c2ccc(Cl)cc2)c(-c2ccc(Cl)cc2)nn(C(C)CO)c1=O` (configuration not stated): the BP result is “Not significant”.

As to `COc1ccc(-c2nn(CCO)c(=O)c(C#N)c2-c2ccc(OC)cc2)cc1`, the BP entry is “Not significant”.

Turning to `COc1ccc(-c2nn(CCO)c(=O)c(C(C)=O)c2-c2ccc(OC)cc2)cc1`, the BP result was “Not significant”.

`CC(=O)c1c(-c2ccc(Cl)cc2)c(-c2ccc(Cl)cc2)nn(CC(N)=O)c1=O`: the BP entry was “Not significant”.

Regarding `Cc1ccc(-c2nnc(O)c(-c3ccccc3)c2-c2ccc(C)cc2)cc1`, the BP result is “Not significant”.

Regarding `COc1ccc(OC)c(-c2c(O)nnc(-c3ccccc3)c2-c2ccccc2)c1`, the BP entry is “Not significant”.

Turning to `O=C(O)c1c(O)nnc(-c2ccc(Cl)cc2)c1-c1ccc(Cl)cc1`, the BP entry is “Not significant”.

Regarding `CCOC(=O)Cn1nc(-c2ccc(OC)cc2)c(-c2ccc(OC)cc2)c(C(C)=O)c1=O`, the BP entry was “Not significant”.

Consider `CC(O)c1c(-c2ccccc2)c(-c2ccccc2)nn(CCO)c1=O` (configuration not stated), for which the BP result is “Not significant”.

Turning to `N#Cc1c(-c2ccc(Cl)cc2)c(-c2ccc(Cl)cc2)nn(CCCl)c1=O`, the BP entry was “Not significant”.

Regarding `COc1ccccc1-c1c(O)nnc(-c2ccccc2)c1-c1ccccc1`, the BP result is “Not significant”.

As for `CC(=O)Cn1nc(-c2ccc(Cl)cc2)c(-c2ccc(Cl)cc2)c(C#N)c1=O`, the BP entry is “Not significant”.

As to `N#Cc1c(O)nnc(-c2ccccc2Cl)c1-c1ccccc1Cl`, the BP result is “Not significant”.

With `CC(C)C(=O)c1c(-c2ccc(Cl)cc2)c(-c2ccc(Cl)cc2)nn(CCO)c1=O`, the BP entry is “Not significant”.

For `CCOC(=O)CCCn1nc(-c2ccc(Cl)cc2)c(-c2ccc(Cl)cc2)c(C#N)c1=O`, the BP result was “Not significant”.

As for `CC(=O)Nc1ccc(-c2c(-c3ccc(Cl)cc3)c(-c3ccc(Cl)cc3)nn(CCO)c2=O)cc1`, the BP entry was “Not significant”.

Turning to `Cc1ccc(-c2nn(CCO)c(=O)c(-c3ccccc3)c2-c2ccc(C)cc2)cc1`, the BP entry is “Not significant”.

As for `CC(=O)c1c(-c2ccc(Cl)cc2)c(-c2ccc(Cl)cc2)nn(CC(C)O)c1=O` (configuration not stated), the BP result is “Not significant”.

With `O=c1c(-c2cccc(Cl)c2)c(-c2ccccc2)c(-c2ccccc2)nn1CCO`, the BP result was “Not significant”.

As for `CC(=O)c1c(-c2ccccc2)c(-c2ccccc2)nn(C)c1=O`, the BP result was “Not significant”.

Regarding `C=Cn1nc(-c2ccc(Cl)cc2)c(-c2ccc(Cl)cc2)c(C(C)=O)c1=O`, the BP result was “Not significant”.

Regarding `N#Cc1c(-c2ccc(F)cc2)c(-c2ccc(F)cc2)nn(CCO)c1=O`, the BP result is “Not significant”.

On to `CCC(=O)c1c(-c2ccc(Cl)cc2)c(-c2ccc(Cl)cc2)nn(CCO)c1=O`, for which the BP result is “Not significant”.

For the compound `CCOC(=O)c1c(-c2ccc(Cl)cc2)c(-c2ccc(Cl)cc2)nn(CCO)c1=O`, the BP result was “Not significant”.

With `CC(=O)c1c(-c2ccc(Cl)cc2)c(-c2ccc(Cl)cc2)nn(CC[N+](C)(C)C)c1=O`, the BP entry is “Not significant”.

On to `O=c1c(-c2ccc3ccccc3c2)c(-c2ccccc2)c(-c2ccccc2)nn1CCO`, for which the BP entry was “Not significant”.

For `CCCC(=O)c1c(O)nnc(-c2ccc(Cl)cc2)c1-c1ccc(Cl)cc1`, the BP entry was “Not significant”.

For `CC(=O)c1c(-c2ccc(Cl)cc2)c(-c2ccc(Cl)cc2)nn(CC(=O)O)c1=O`, the BP result was “Not significant”.

With `CC(=O)c1c(-c2ccc(Cl)cc2)c(-c2ccc(Cl)cc2)nn(CCCN(C)C)c1=O`, the BP result is “Not significant”.

Turning to `CC(=O)c1c(O)nnc(-c2ccccc2)c1-c1ccccc1`, the BP entry was “Not significant”.

In the case of `CC(=O)c1c(-c2ccc(Cl)cc2)c(-c2ccc(Cl)cc2)nn(CCN2C(=O)c3ccccc3C2=O)c1=O`, the BP entry was “Not significant”.

Take `CC(=O)c1c(-c2ccc(Cl)cc2)c(-c2ccc(Cl)cc2)nn(CC2CO2)c1=O` (configuration not stated): the BP entry was “Not significant”.

Regarding `CCn1nc(-c2ccc(Cl)cc2)c(-c2ccc(Cl)cc2)c(C(C)=O)c1=O`, the BP entry was “Not significant”.

`O=S(=O)(c1ccccc1)c1c(O)nnc(-c2ccccc2)c1-c1ccccc1`: the BP result was “Not significant”.

On to `CC(=O)c1c(-c2ccc(Cl)cc2)c(-c2ccc(Cl)cc2)nn(CCI)c1=O`, for which the BP entry is “Not significant”.

In the case of `Oc1nnc(-c2ccccc2)c(-c2ccccc2)c1-c1cccc(Cl)c1`, the BP entry was “Not significant”.

For `CC(=O)c1c(-c2ccc(Cl)cc2)c(-c2ccc(Cl)cc2)nn(CCCCCO)c1=O`, the BP result is “Not significant”.

For `O=C(O)CCCn1nc(-c2ccccc2)c(-c2ccccc2)c(-c2ccccc2)c1=O`, the BP entry was “Not significant”.

Consider `CC(=O)c1c(-c2ccc(Cl)cc2)c(-c2ccc(Cl)cc2)nn(CC(O)CCl)c1=O` (configuration not stated), for which the BP entry is “Not significant”.

Take `CC(=O)c1c(-c2ccc(OCc3ccccc3)cc2)c(-c2ccc(OCc3ccccc3)cc2)nn(CCO)c1=O`: the BP entry was “Not significant”.

On to `Cc1ccc(-c2nnc(O)c(C#N)c2-c2ccc(C)cc2)cc1`, for which the BP result is “Not significant”.

Turning to `COC(=O)Cn1nc(-c2ccc(Cl)cc2)c(-c2ccc(Cl)cc2)c(C#N)c1=O`, the BP entry was “Not significant”.

Take `COc1cc(-c2c(O)nnc(-c3ccc(Cl)cc3)c2-c2ccc(Cl)cc2)cc(OC)c1OC`: the BP result was “Not significant”.

Consider `O=C(c1ccccc1)c1c(-c2ccccc2)c(-c2ccccc2)nn(CCO)c1=O`, for which the BP result was “Not significant”.

Consider `O=c1cc(-c2ccc(Cl)cc2)c(-c2ccc(Cl)cc2)nn1CCO`, for which the BP result is “Not significant”.

As for `CCOC(=O)CCCn1nc(-c2ccccc2)c(-c2ccccc2)c(C(C)=O)c1=O`, the BP entry was “Not significant”.

On to `COc1ccc(-c2c(O)nnc(-c3ccccc3)c2-c2ccccc2)cc1`, for which the BP result is “Not significant”.

Regarding `Cn1nc(-c2ccccc2)c(-c2ccccc2)c(C#N)c1=O`, the BP entry was “Not significant”.

`C/C(=N\N)c1c(O)nnc(-c2ccccc2)c1-c1ccccc1`: the BP result is “Not significant”.

Regarding `N#Cc1c(-c2ccc(Cl)c(Cl)c2)c(-c2ccc(Cl)c(Cl)c2)nn(CCO)c1=O`, the BP result is “Not significant”.

Regarding `CC(=O)c1c(O)nnc(-c2ccc(Cl)cc2)c1-c1ccc(Cl)cc1`, the BP result was “Not significant”.

For the compound `COc1ccc(-c2c(-c3ccccc3)c(-c3ccccc3)nn(CCO)c2=O)cc1`, the BP result was “Not significant”.

Turning to `Oc1nnc(-c2ccccc2)c(-c2ccccc2)c1-c1ccccc1`, the BP entry was “Not significant”.

Regarding `CC(=O)c1c(-c2ccccc2)c(-c2ccccc2)nn(CCCC(=O)O)c1=O`, the BP entry is “Not significant”.

With `COc1cccc(-c2c(-c3ccccc3)c(-c3ccccc3)nn(CCO)c2=O)c1`, the BP result was “Not significant”.

For the compound `CC(=O)c1c(-c2ccc(Cl)cc2)c(-c2ccc(Cl)cc2)nn(CC(O)CNC(C)C)c1=O` (configuration not stated), the BP entry was “Not significant”.

As for `COC(=O)Cn1nc(-c2ccc(Cl)cc2)c(-c2ccc(Cl)cc2)c(C(C)=O)c1=O`, the BP result is “Not significant”.

In the case of `CC(=O)c1c(-c2ccc(O)cc2)c(-c2ccc(O)cc2)nn(CCO)c1=O`, the BP result is “Not significant”.

Consider `CC(=O)c1c(O)nnc(-c2ccc(F)cc2)c1-c1ccc(F)cc1`, for which the BP result is “Not significant”.
